Assay results published in patent publication US20230139506A1, “HETEROCLITIC CANCER VACCINES” (MEMORIAL SLOAN KETTERING CANCER CENTER, priority 2020, published 2023).

Legend:
[1] = biological target: T1, H-2Kb (Mus musculus, UniProt P01901); assay: MHC-I stabilization assay using TAP-deficient RMA/S cells; type: cell-based, murine
T1 construct: its ability to stabilize MHC-I in the H-2Kb-expressing TAP-deficient RMA/S cell line; endogenous in cells; host or cells: RMA/S cells (murine, TAP-deficient)
T1 sequence (P01901 22-369): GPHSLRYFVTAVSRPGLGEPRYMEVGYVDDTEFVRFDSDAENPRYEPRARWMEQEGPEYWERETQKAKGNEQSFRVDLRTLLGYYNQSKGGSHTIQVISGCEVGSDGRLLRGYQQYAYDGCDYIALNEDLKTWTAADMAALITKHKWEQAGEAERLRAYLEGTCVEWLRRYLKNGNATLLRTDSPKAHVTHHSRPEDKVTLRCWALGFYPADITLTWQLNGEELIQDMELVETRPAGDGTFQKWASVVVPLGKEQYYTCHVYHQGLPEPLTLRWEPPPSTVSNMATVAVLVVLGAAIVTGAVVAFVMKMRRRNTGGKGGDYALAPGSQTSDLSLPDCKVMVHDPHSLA
T1 sequence (P01887 21-119 partner): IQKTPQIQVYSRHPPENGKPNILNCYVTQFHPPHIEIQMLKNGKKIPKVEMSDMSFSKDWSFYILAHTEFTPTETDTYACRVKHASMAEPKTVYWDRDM
Protocol: (§1) To test peptide binding to murine H-2Kb or human HLA-A*02:01, TAP-deficient RMA/S and T2 cells were used, respectively, as previously reported (59, 60). […] T2 cells (62) were serum-starved in serum-free RPMI media overnight and […] at indicated final concentrations for 16 hours before measuring HLA-A*02:01 levels by flow cytometry (BD; Clone BB7.2). The […] (SEQ ID NO. 287) peptide was acquired as a custom order from Genscript.

[2] = test system: C57BL/6J mice; assay: Peptide immunization (Titermax adjuvant) and IFNγ ELISpot of CD8+ T cells from draining lymph nodes; type: in vivo, mouse; conditions: for CALR9p2-specific CD8+ T cell response: peptide emulsified in Titermax adjuvant, secondary restimulation with CALR9p2
Protocol: (§2) All peptides were purchased as custom peptide synthesis orders from GenScript at a purity of >98% and resuspend at 10 mg/mL in DMSO (Sigma). For peptide vaccines, peptides were diluted in PBS and emulsified with Titermax® (Titermax USA, Inc) at a 1:1 ratio immediately prior to immunization, such that each dose was composed of 10 μg peptide in a total volume of 25 uL. In control (DMSO) immunization, an equivalent volume of DMSO is substituted for the diluted peptide in the TiterMax® emulsion. For subsequent in vitro assays, draining inguinal and popliteal lymph nodes were collected at indicated time points and CD8+ T cells were isolated using positive magnetic sorting using mouse CD8a (Ly-2) MicroBeads (Miltenyi Biotec). DNA vaccines were performed using a gene gun as previously described (27, 63) according to indicated time points. Briefly, mice received four injections (400 lbs/inch2) of DNA-coated gold particles into the abdominal region of the skin for a total 4 μg of DNA per dose. DNA plasmids encoding the wildtype or 52 base-pair deletion CALRMUT sequences fused with the flag sequence are as previously described (64). For pING-OVA, the full-length chicken ovalbumin sequence was cloned into the pING plasmid (65). CD8+ T cells were collected as before, but only from draining inguinal lymph nodes. To test for antigen-specificity, the mouse IFNγ ELISpot set (BD) was used according to the manufacturer's instructions. Briefly, CD8+ T cells were frozen immediately after purification in FBS containing 10% DMSO, thawed one day prior to restimulation and allowed to recover overnight in 20 U/mL IL-2 (Peprotech) RPMI-1640 medium containing 10% fetal bovine serum (FBS), Na-Pyruvate, L-glutamine and Penicillin/Streptomycin. As a source of antigen-presenting cells (APCs), splenocytes from naïve mice were depleted of T cells using magnetic microbeads for CD8a (Ly2) and CD4 (L3T4) (Miltenyi Biotec), pulsed for one hour with 100 μg/mL peptide at 37° C. followed by a wash. For each well, 105 CD8+ T cells were co-culture with 1×105-3×105 peptide-pulsed APCs and incubated for approximately 18 hours. Spots were counted using the ImmunoSpot analyzer (Cellular Technology Limited).

[3] = test system: RMA/SpER-CALR9p2 tumors; assay: Tumor growth experiments with RMA/SpER-CALR9p2 tumors; type: in vivo, mouse
Protocol: as §2
RMA/S cells were maintained in RPMI 1640 medium supplemented with 7.5% inactivated FBS, 1×non-essential amino acids and 2 mM L-glutamine. The DNA sequence encoding the CALR9p2 peptide (bold) was cloned into the PresentER-IRES-GFP (38) construct using the following oligo:
following SfiI digestion and T4 ligation (New England Biolabs). The resulting construct was used to generate retrovirus by co-transfection with pCL-Ampho into ecotropic Pheonix cells (ATCC). Viral supernatants were collected at 48 and 72 hours, pooled and Retro-X Concentrator (Takara Bio USA)-concentrated retrovirus was used to transduce RMA/S cells by spinoculation using polybrene (Sigma). GFP-positive cells were FACS sorted (BD FACSAria III) and cultured in 4 μg/mL puromycin (Gibco) media. A total of 5×10^6 cells were injected subcutaneously in the flank of mice. For anti-PD1 treatment, 250 μg of RMP1-14 was injected intra-peritoneally in PBS at indicated time points.

[4] = test system: peptide-pulsed B16 cells; assay: Killing assay of peptide-pulsed B16 cells by CD8+ T cells isolated from peptide-immunized mice; type: cell-based, mouse; conditions: CD8+ T cells from mice immunized with a single dose
[5] = test system: CD8+ T cells; assay: CALR9p2(T5F)-tetramer staining and flow cytometry of CD8+ T cells from immunized mice; type: in vivo, mouse
[6] = test system: PBMCs from healthy HLA-A*02:01 individuals; assay: Human PBMC in vitro restimulation, IFNγ+ CD8+ T cells by intracellular staining; type: cell-based; conditions: six healthy donors; significant (P<0.05) or trending (P<0.30)
Protocol: Freshly isolated or thawed cryopreserved healthy donor PBMCs were restimulated with cytokines and peptides as previously described (14). Briefly, on day 0, PBMCs were resuspended in X-VIVO15 media (Lonza) and seeded at 105 per well of a 96 U-bottom plate with 1000 IU/mL GM-CSF (Sanofi), 500 IU/mL IL-4 (R&D Systems) and 50 ng/mL Flt3L (R&D Systems). On day 1, media was refreshed with 0.1 μg/mL LPS (Invivogen), 10 μM R848 (Invivogen), 5 μg/mL IL-10 (R&D Systems) and 1 μg/mL of indicated peptides, and incubated for 24 hours. The CMV, EBV, Flu, Tetanus (CEFT) and the myelin oligodendrocyte glycoprotein (MOG) peptide pools (JPT Technologies) were used as positive and negative controls, respectively. On days 2 and 5, half the media was refreshed with RPMI (Gibco) containing 10% human serum (Gemini Bio-Products), 10 ug/ml gentamycin (Gibco), HEPES (Gibco), GlutaMAX (Gibco) and hIL-2 and hIL-7 to a final concentration of 10 IU/mL and 10 ng/mL, respectively (R&D Systems). On day 8, the media was refreshed without cytokines. On day 10, PBMCs were restimulated with corresponding peptides in the presence of 1 μg/mL of anti-hCD28 and anti-hCD49d (BD Biosciences). As controls, some cells were stimulated with PMA (Sigma-Aldrich, 50 ng/mL) and ionomycin (Sigma-Aldrich, 1 μg/mL). […] Data was acquired using the BD Fortessa and the data was analyzed on FlowJo V10 (TreeStar). […]

[7] = biological target: T2, HLA-A*02:01 (Homo sapiens, UniProt P04439, D140Y/D185E/D98H/E176V/E277Q/G131W/G231S/I119V/I121R/I166T/I218V/L300P/L318F/N151K/N90K/P208A/P217A/Q86G/Q94H/R138H/R169H/T345S); assay: MHC-I stabilization assay using human TAP-deficient T2 cells; type: cell-based; conditions: flow cytometry
T2 construct: endogenous in cells; host or cells: T2 cells (human, TAP-deficient)
Protocol: as §1

[8] = biological target: T3, murine H-2Kb on TAP-deficient RMA/S cells (murine, UniProt P01887 21-119; P01901 22-305); assay: H-2Kb stabilization assay on RMA/S cells in absence of serum, flow cytometry
T3 construct: whole, on cells;extracellular; MHC class I molecule; surface level read with antibody clone AF6-88.5 by flow cytometry
T3 sequence (MHC heavy, looked up): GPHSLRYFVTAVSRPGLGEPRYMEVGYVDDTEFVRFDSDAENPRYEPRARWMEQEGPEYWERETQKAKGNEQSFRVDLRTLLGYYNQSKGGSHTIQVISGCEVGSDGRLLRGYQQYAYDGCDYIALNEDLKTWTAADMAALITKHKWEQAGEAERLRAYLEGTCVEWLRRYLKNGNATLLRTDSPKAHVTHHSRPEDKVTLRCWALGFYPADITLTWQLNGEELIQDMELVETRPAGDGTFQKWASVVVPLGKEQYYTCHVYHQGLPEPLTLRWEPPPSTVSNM
T3 sequence (b2m, looked up): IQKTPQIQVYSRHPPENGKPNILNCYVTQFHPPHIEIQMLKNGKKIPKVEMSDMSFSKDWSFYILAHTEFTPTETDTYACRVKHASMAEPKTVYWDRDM
Description: To test peptide binding to murine H-2Kb or human HLA-A*02:01, TAP-deficient RMA/S and T2 cells were used, respectively, as previously reported (59, 60).

[9] = biological target: T3, murine H-2Kb on TAP-deficient RMA/S …; assay: H-2Kb stabilization assay on RMA/S cells, flow cytometry
[10] = initial CALR9p2(T5F) followed by two CALR9p2 boosts
[11] = two doses of CALR9p2(T5F) and a final CALR9p2 boost
[12] = prophylactic: three doses prior to tumor implantation, vs adjuvant alone
[13] = therapeutic: multiple doses after tumors allowed to grow, vs adjuvant alone

RMMRFKMRM [CALR9p2(T5F)]
fold H-2Kb stabilization compared to CALR9p2 ([1]; absence of serum): tenfold
CD8+ T cell response to CALR9p2(T5F) [2, 10]: very small response to the CALR9p2(T5F) peptide
cross-reactive CD8+ T cell response to CALR9p2 [2, 10]: no detectable cross-reactive CD8+ T cell responses to CALR9p2 in vitro
CALR9p2-specific CD8+ T cell response [2]: elicited a CD8+ T cell capable of cross-reacting with CALR9p2 in vitro
CD8+ T cell response to CALR9p2(T5F) [2, 11]: intermediate response to CALR9p2(T5F)
cross-reactive CD8+ T cell response to CALR9p2 [2, 11]: no detectable cross-reactive CD8+ T cells
survival ([3]; prophylactic: three doses prior to tumor implantation): differences in survival were not significant
tumor growth [3, 12]: grew significantly slower
effect of the vaccine ([3]; therapeutic, administered with immune checkpoint blockade using a PD-1 antibody): even more prominent
survival [3, 13]: improved survival
tumor growth [3, 13]: tumors grew significantly slower
killing of tumor cells pulsed with the CALR9p2 peptide [4]: killing tumor cells pulsed with the CALR9p2 peptide
IFNγ restimulation by CALR9p2 of CALR9p2(T5F)-tetramer-specific CD8+ T cells ([5]; CD8+ T cells from CALR9p2(T5F)-immunized mice): The only CALR9p2-potentiated CD8+ T cells were those also staining for the CALR9p2(T5F)-tetramer
Tim3 and Pd1 levels of CALR9p2-specific vs CALR9p2(T5F)-specific CD8+ T cells ([5]; after restimulation): equal levels of Tim3 and Pd1

RMMRTKMRM [CALR9p2, 9mer CALRMUT peptide starting at position 2, parental native peptide]
CD8+ T cell responses (IFNγ) to CALR9p2 alone [6]: three of the six healthy donors
H-2Kb stabilization ([1]; in the presence of serum): did not elicit detectable H-2Kb stabilization
H-2Kb stabilization ([1]; serum omitted): poor but still detectable binding
peptide concentration at which H-2Kb was stabilized ([1]; serum omitted, only the highest concentration): 100 µg/mL
CALR9p2-specific CD8+ T cell response [2]: did not elicit any CALR9p2-specific CD8+ T cell response
tumor growth [3, 12]: grew at the same rate
binding to HLA-A*02:01 (stabilization) [7]: weak binding signal compared to DMSO control

SIINFEKL [chicken ovalbumin (OVA)-derived peptide, positive control]
H-2Kb stabilization ([1]; in the presence of serum): strong binding

RMMRFKMRM (Custom synthetic peptide) [CALR9p2(T5F) heteroclitic peptide (RMMRFKMRM)]
fold H-2Kb stabilization compared to CALR9p2 [8]: ~10 fold

SIINFEKL (Custom order from Genscript) [chicken ovalbumin (OVA)-derived peptide SIINFEKL]
binding result [9]: binds
